Measured values taken from ChEMBL document CHEMBL3301562, “MMV Box screening against Plasmodium falciparum protein kinases and aminoacyl tRNA synthetases”.

Key:
Format in all cases: functional
[1] = biological target: T1, Putative uncharacterized protein pk7 (Plasmodium falciparum, UniProt O96214); assay: Final concentrations were 1 uM ATP, 2 mM DTT, 20 mM MgCl2, 2 mM MnCl2, 0.01% BSA, and 6 ug/ml PK7, in a buffer of 20 mM Tris-HCl (pH 7.5). The enzyme itself was the only substrate present (since autophosphorylation occurs); 100 uM 1NA-PP1 was used as a control inhibitor. Incubation time was 3 hours.
T1 sequence (O96214 whole entry): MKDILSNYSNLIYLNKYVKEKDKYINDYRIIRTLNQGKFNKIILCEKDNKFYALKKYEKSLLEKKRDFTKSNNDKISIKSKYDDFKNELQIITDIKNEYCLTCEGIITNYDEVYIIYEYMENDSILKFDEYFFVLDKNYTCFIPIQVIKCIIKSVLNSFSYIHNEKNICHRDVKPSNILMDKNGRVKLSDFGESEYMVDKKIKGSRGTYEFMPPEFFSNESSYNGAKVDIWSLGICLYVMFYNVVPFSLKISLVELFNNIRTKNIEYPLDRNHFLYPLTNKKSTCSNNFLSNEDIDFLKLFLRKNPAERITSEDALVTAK

Lysine--tRNA ligase = Lysine--tRNA ligase (Plasmodium falciparum (isolate 3D7), UniProt Q8IDJ8); assay: MMV: KRS recombinant Plasmodium falciparum Lysyl-tRNA-synthetase, assay with yeast tRNA, ATP, and lysine and 3 uM MMV malaria box compound, assay read out with kinase glo as % inhibition.
[2] = biological target: Calcium-dependent protein kinase 1 (Plasmodium falciparum, UniProt P62344); assay: MMV: CDPK1 Protein kinase inhibition assay using recombinant PfCDPK1, syntide 2 peptide substrate, ATP and KinaseGlo to measure % inhibition at 1 uM MMV box compound.
[3] = biological target: T2, Calcium-dependent protein kinase 4 (Plasmodium falciparum (isolate 3D7), UniProt Q8IBS5); assay: MMV: CDPK4 Protein kinase inhibition assay using recombinant PfCDPK4, syntide2 peptide substrate, ATP and KinaseGlo to measure % inhibition at 1 uM MMV box compound.
T2 sequence (Q8IBS5 whole entry): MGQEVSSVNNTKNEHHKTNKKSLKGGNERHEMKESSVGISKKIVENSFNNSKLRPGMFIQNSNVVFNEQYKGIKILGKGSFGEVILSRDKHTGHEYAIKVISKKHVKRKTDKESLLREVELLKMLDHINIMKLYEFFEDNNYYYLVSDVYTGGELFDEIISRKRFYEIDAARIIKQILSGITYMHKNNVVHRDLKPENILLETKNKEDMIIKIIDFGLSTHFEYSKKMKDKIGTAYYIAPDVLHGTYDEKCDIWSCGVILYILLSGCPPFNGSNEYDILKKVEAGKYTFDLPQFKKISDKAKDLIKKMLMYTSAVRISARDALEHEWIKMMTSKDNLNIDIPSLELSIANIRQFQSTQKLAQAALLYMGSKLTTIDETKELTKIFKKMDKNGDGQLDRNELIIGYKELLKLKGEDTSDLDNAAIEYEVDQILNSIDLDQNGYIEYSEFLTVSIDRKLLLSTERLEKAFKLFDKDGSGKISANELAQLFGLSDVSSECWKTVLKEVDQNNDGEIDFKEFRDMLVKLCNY

[4] = biological target: T3, Cdk-related protein kinase 6 (Plasmodium falciparum, UniProt O77239); assay: Final concentrations were 1.5 uM ATP, 5 mM MnCl2, and 15 ug/ml PK6 in a buffer of 100 mM Tris-HCl (pH 7.5). 50 ug/mL MBP was provided as the substrate; 10 uM staurosporine was used as a control inhibitor. Incubation time was 3 hours and 40 minutes.The catalytic activity of each kinase was considered proportional to ATP consumed, as determined from measurements of residual [ATP] with the luciferase-based reagent Kinase-Glo (Promega) following incubation. Luminescence (proportional to residual [ATP]) was measured on the plate readers FLx800 (BioTek Instruments, Winooski, VT, USA) and MicroBeta2.
T3 sequence (O77239 whole entry): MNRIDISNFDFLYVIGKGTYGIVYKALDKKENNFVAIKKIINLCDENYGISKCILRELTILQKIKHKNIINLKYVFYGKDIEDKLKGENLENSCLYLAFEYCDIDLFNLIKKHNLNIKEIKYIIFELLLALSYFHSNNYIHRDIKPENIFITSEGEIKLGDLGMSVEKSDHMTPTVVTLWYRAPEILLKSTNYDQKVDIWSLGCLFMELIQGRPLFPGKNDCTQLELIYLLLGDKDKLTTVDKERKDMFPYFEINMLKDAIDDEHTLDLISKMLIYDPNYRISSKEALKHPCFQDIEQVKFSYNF

Proline--tRNA ligase = biological target: T4, Proline--tRNA ligase (Plasmodium falciparum (isolate 3D7), UniProt Q8I5R7); assay: MMV: ProRS recombinant Plasmodium falciparum Prolyl-tRNA-synthetase, assay with yeast tRNA, ATP, and proline and 3 uM MMV malaria box compound, assay read out with kinase glo as % inhibition.
T4 sequence (Q8I5R7 whole entry): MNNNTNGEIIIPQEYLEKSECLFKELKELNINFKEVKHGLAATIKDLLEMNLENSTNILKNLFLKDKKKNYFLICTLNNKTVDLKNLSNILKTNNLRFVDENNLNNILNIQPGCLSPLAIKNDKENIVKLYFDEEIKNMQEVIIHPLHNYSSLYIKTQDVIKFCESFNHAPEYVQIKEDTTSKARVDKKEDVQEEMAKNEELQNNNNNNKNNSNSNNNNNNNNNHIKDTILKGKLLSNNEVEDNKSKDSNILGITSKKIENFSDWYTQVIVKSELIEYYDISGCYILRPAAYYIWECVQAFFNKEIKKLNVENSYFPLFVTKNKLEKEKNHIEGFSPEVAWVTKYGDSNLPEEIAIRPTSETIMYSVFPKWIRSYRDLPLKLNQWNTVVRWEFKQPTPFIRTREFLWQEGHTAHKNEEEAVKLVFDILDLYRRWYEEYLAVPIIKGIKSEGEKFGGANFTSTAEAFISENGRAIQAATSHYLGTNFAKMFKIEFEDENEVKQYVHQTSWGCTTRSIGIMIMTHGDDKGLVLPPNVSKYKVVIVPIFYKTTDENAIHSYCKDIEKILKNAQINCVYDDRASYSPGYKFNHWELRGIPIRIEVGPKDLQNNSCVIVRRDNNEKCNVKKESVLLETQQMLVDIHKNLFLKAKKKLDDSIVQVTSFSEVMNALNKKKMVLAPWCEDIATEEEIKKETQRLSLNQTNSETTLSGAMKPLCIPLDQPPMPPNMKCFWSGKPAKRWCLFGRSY

[5] = biological target: T5, Mitogen-activated protein kinase (Plasmodium falciparum, UniProt Q25917); assay: Final concentrations were 1 uM ATP, 0.5 mM DTT, 1 mM MgCl2, 0.5 mg/mL BSA, and 10 ug/ml MAP2 in a buffer of 50 mM HEPES (pH 7.0). 0.5 mg/mL histone III-S served as the substrate (13); 100 uM AMP-PNP, an ATP analog, was used as a control inhibitor. Incubation time was 4 hours.
T5 sequence (Q25917 whole entry): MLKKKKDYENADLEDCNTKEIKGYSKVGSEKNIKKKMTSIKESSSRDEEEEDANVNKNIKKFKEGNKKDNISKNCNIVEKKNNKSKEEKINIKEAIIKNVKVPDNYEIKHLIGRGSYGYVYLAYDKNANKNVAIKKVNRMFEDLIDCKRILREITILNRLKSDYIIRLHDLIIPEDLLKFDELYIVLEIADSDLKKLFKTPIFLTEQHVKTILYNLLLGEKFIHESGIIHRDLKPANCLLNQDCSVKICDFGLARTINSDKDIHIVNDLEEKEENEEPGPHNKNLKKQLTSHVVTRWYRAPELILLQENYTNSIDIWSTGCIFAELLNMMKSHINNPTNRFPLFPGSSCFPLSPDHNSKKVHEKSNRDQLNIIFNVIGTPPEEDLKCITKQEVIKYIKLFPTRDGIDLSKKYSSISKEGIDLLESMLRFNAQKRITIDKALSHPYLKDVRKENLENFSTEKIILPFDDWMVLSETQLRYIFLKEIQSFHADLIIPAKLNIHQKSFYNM

Sequence of Lysine--tRNA ligase (Q8IDJ8 whole entry): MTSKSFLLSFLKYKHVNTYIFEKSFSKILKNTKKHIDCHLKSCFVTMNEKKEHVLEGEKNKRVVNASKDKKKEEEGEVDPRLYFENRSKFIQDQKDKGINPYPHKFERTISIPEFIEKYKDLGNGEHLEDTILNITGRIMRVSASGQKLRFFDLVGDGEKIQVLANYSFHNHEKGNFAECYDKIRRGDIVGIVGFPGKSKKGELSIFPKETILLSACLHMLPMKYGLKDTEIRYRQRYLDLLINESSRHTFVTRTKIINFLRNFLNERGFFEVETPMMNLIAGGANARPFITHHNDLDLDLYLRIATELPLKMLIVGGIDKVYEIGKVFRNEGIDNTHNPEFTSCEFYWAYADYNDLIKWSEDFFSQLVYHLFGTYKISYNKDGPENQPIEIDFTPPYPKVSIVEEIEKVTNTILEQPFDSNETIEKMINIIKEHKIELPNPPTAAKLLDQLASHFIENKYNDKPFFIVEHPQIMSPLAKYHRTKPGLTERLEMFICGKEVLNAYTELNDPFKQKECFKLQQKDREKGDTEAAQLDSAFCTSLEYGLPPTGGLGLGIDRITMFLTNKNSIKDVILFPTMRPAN
Sequence of Calcium-dependent protein kinase 1 (P62344 whole entry): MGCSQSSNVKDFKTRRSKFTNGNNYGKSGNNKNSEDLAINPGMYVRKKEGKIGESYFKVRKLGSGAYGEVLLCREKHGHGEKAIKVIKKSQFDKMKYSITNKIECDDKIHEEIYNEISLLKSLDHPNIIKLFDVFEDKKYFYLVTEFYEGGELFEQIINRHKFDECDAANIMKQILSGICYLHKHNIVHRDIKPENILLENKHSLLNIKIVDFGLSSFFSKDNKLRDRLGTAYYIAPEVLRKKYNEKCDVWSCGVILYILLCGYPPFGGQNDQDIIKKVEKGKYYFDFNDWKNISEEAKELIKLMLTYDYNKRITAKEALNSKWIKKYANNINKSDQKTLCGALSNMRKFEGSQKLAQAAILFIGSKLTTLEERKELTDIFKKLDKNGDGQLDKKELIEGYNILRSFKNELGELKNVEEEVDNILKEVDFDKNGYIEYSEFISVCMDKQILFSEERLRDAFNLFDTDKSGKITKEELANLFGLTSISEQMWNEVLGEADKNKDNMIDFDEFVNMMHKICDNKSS

| Compound | IC50 [1] [nM] | IC50 (Lysine--tRNA ligase) [nM] | IC50 [2] [nM] | IC50 [3] [nM] | IC50 [4] [nM] | IC50 (Proline--tRNA ligase) [nM] | IC50 [5] [nM] |
| --- | --- | --- | --- | --- | --- | --- | --- |
| COc1ccc2c(c1)C1(Nc3ccccc3-c3nc4ccccc4n31)C(=O)N2 (centres undefined) | > 1000 | > 2500 | > 1000 | > 1000 | > 1000 | > 2500 | > 1000 |
| CCOc1c(Cl)cc(CNCC(O)c2ccccc2)cc1OC (centres undefined) | > 1000 | > 2500 | > 1000 | > 1000 | > 1000 | > 2500 | > 1000 |
| O=C(Nc1ccc(Br)cc1)Nc1cccc(Cl)c1 | > 1000 | > 2500 | > 1000 | > 1000 | > 1000 | > 2500 | > 1000 |
| COc1ccc2nc(C)cc(Nc3ccc(Cl)cc3)c2c1 | > 1000 | > 2500 | > 1000 | > 1000 | > 1000 | > 2500 | > 1000 |
| Cc1sc2ncnc(Sc3nc4ccccc4[nH]3)c2c1C | > 1000 | > 2500 | > 1000 | > 1000 | > 1000 | > 2500 | > 1000 |
| O=C(Nc1ccc(CN2CCOCC2)cc1)c1ccc(-c2cc(Cl)ccc2Cl)o1 | > 1000 | > 2500 | > 1000 | > 1000 | > 1000 | > 2500 | > 1000 |
| COCCn1c(C)nc2ccccc2c1=O | > 1000 | > 2500 | > 1000 | > 1000 | > 1000 | > 2500 | > 1000 |
| O=C(NC1CCN(Cc2ccccc2)CC1)c1cc(-c2cccnc2)nc2ccc(Cl)cc12 | > 1000 | > 2500 | > 1000 | > 1000 | > 1000 | > 2500 | > 1000 |
| COc1ccc(-c2nonc2NC(=O)c2cccc(Cl)c2)cc1OC | > 1000 | > 2500 | > 1000 | > 1000 | > 1000 | > 2500 | > 1000 |
| CCOc1cc2c(cc1OCC)C(c1cc(C)c(O)c(C)c1)NCC2 (centres undefined) | > 1000 | > 2500 | > 1000 | > 1000 | > 1000 | > 2500 | > 1000 |
| CC(C)c1ccc(CNCC(O)c2ccccc2)cc1 (centres undefined) | > 1000 | > 2500 | > 1000 | > 1000 | > 1000 | > 2500 | > 1000 |
| Oc1ccc(Br)cc1CN1CCN(Cc2cccc(F)c2)CC1 | > 1000 | > 2500 | > 1000 | > 1000 | > 1000 | > 2500 | > 1000 |
| CN(C)c1ccc(N2C(N)=NC(N)=NC2(C)C)cc1 | > 1000 | > 2500 | > 1000 | > 1000 | > 1000 | > 2500 | > 1000 |
| CCCCc1c(C)nc2c(OC)cccc2c1O | > 1000 | > 2500 | > 1000 | > 1000 | > 1000 | > 2500 | > 1000 |
| CCOC(=O)C1CCN(C(=O)CN2C(=O)c3ccccc3C2c2c[nH]c3ccccc23)CC1 (centres undefined) | > 1000 | > 2500 | > 1000 | > 1000 | > 1000 | > 2500 | > 1000 |
| CCOc1ccc(CCNC(=O)c2cccs2)cc1OCC | > 1000 | > 2500 | > 1000 | > 1000 | > 1000 | > 2500 | > 1000 |
| Cc1c(C)n(CC(O)CNC2CCCCC2C)c2ccccc12 (centres undefined) | > 1000 | > 2500 | > 1000 | > 1000 | > 1000 | > 2500 | > 1000 |
